Reference: the supplement of paper PMC10307832

Legend:
Assay in all cases: relative viability (nuclei count vs DMSO), 5 days (fraction); higher = more cells survive
Tanzisertib + Vorinostat = compound: O[C@H]1CC[C@H](Nc2ncc3nc(Nc4c(F)cc(F)cc4F)n([C@H]4CCOC4)c3n2)CC1 [Tanzisertib] + O=C(CCCCCCC(=O)Nc1ccccc1)NO [Vorinostat] (partner 1 µM)
Procedure, shortened: (§1)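 Relative viability is defined as nuclei in treated wells over nuclei in vehicle wells. Duplicate plates were run and medians reported. Lung cancer cell lines in 1536-well plates were dosed by pin tool one day after seeding, with one drug or with a fixed anchor-drug dose plus five library-drug doses (not always all listed) in √10 steps, and nuclei were counted after 5 days.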

[1] = compound: C[C@@H](N)c1ccc(C(=O)Nc2ccnc3[nH]ccc23)cc1 + C[C@@H](Oc1cc(-c2cnn(C3CCNCC3)c2)cnc1N)c1c(Cl)ccc(F)c1Cl [Crizotinib] (partner 1 µM)
Procedure, shortened: as §1

[2] = compound: C[C@@H](N)c1ccc(C(=O)Nc2ccnc3[nH]ccc23)cc1 + O=C(CCCCCCC(=O)Nc1ccccc1)NO [Vorinostat] (partner 1 µM)
Procedure, shortened: as §1

[3] = compound: C[C@@H](N)c1ccc(C(=O)Nc2ccnc3[nH]ccc23)cc1 + Nc1ncn([C@H]2C[C@H](O)[C@@H](CO)O2)c(=O)n1 [Decitabine] (partner 2 µM)
Procedure, shortened: as §1

| Cell Line | relative viability (Tanzisertib + Vorinostat; first compound 0.08 µM) | relative viability (Tanzisertib + Vorinostat; first compound 0.253 µM) | relative viability (Tanzisertib + Vorinostat; first compound 0.8 µM) | relative viability (Tanzisertib + Vorinostat; first compound 2.53 µM) | relative viability (Tanzisertib + Vorinostat; first compound 8 µM) | relative viability ([1]; first compound 0.04 µM) | relative viability ([1]; first compound 0.1265 µM) | relative viability ([1]; first compound 0.4 µM) | relative viability ([1]; first compound 4 µM) | relative viability ([2]; first compound 0.04 µM) | relative viability ([2]; first compound 0.1265 µM) | relative viability ([2]; first compound 0.4 µM) | relative viability ([2]; first compound 1.265 µM) | relative viability ([2]; first compound 4 µM) | relative viability ([3]; first compound 0.04 µM) | relative viability ([3]; first compound 0.1265 µM) | relative viability ([3]; first compound 0.4 µM) | relative viability ([3]; first compound 1.265 µM) | relative viability ([3]; first compound 4 µM) | relative viability ([1]; first compound 1.265 µM) |
| --- | --- | --- | --- | --- | --- | --- | --- | --- | --- | --- | --- | --- | --- | --- | --- | --- | --- | --- | --- | --- |
| HCC-15 | 0.91 | 0.766 | 0.857 | 0.807 | 0.923 | 0.903 | 0.781 | 0.805 | 0.72 | 0.844 | 0.817 | 0.933 | 0.997 | 0.868 | 0.698 | 0.613 | 0.623 | 0.612 | 0.514 |  |
| LCLC-103H | 0.896 | 0.773 | 0.801 | 0.783 | 0.653 | 1.19 | 1.02 | 1.13 | 0.903 | 0.714 | 0.634 | 0.787 | 0.466 | 0.608 | 0.652 | 0.69 | 0.724 | 0.716 | 0.652 | 1.01 |
| NCI-H23 | 0.542 | 0.596 | 0.498 | 0.49 | 0.474 | 0.589 | 0.571 | 0.619 | 0.511 | 0.638 | 0.577 | 0.846 |  | 0.658 | 0.296 | 0.295 | 0.363 |  | 0.301 |  |
| NCI-H596 | 0.533 | 0.655 | 0.619 | 0.711 | 0.589 | 1.04 | 0.899 | 0.934 | 0.93 | 0.596 | 0.517 | 0.583 | 0.654 | 0.582 | 1.02 | 1.11 | 1.09 | 1.19 | 1.13 | 0.809 |
| NCI-H460 | 0.864 | 0.89 | 0.744 | 0.729 | 0.699 | 1.1 | 0.943 | 0.966 | 0.603 | 0.86 | 0.73 | 0.771 | 0.949 | 0.702 | 0.525 | 0.485 | 0.581 | 0.575 | 0.451 | 0.516 |
| HCC-366 |  | 0.361 | 0.386 | 0.428 | 0.309 | 0.71 | 0.536 | 0.683 | 0.483 | 0.385 | 0.306 | 0.486 | 0.181 | 0.398 | 0.323 | 0.331 | 0.353 | 0.405 | 0.343 |  |
| NCI-H2085 |  | 0.801 | 0.917 | 0.828 | 0.879 | 0.914 | 0.917 | 0.786 | 0.718 | 0.77 | 0.705 | 0.806 | 0.667 | 0.706 | 0.528 | 0.573 | 0.742 | 0.561 | 0.521 | 0.749 |
| PC-14 | 0.75 | 0.735 | 0.701 | 0.627 | 0.357 | 0.846 | 0.871 | 0.921 | 0.657 | 0.714 | 0.878 | 0.851 |  | 0.683 | 0.24 | 0.217 | 0.277 | 0.258 | 0.188 | 0.8 |
| HOP-62 | 0.632 | 0.599 | 0.679 | 0.768 | 0.605 | 0.685 | 0.798 | 0.908 | 0.709 | 0.715 | 0.541 | 0.602 | 0.179 | 0.555 | 0.21 | 0.225 | 0.241 | 0.206 | 0.207 | 0.853 |
| NCI-H2087 | 0.862 | 0.701 | 0.772 | 0.797 | 1.14 | 0.824 | 0.538 | 0.581 | 0.386 | 0.659 | 0.58 | 0.466 | 0.593 | 0.549 | 0.293 | 0.325 | 0.357 | 0.362 | 0.31 | 0.788 |
| PC-3 [JPC-3] | 0.835 | 1.18 | 1.04 | 0.748 | 0.445 | 0.969 | 0.931 | 1.01 | 0.917 | 0.803 | 0.77 | 0.85 | 0.836 | 0.725 | 0.776 | 0.807 | 0.857 | 0.824 | 0.625 | 1.1 |
| H3255 | 0.818 | 0.938 | 0.787 | 0.721 | 0.345 | 0.862 | 0.979 | 1.04 | 0.761 | 0.89 | 0.816 | 0.886 | 0.655 | 0.715 | 0.603 | 0.747 | 0.67 | 0.67 | 0.481 | 0.972 |
| EMC-BAC-2 | 0.46 | 0.849 | 0.464 | 0.5 | 0.217 | 0.806 | 0.793 | 0.707 | 0.655 | 0.314 | 0.526 | 0.427 | 0.341 | 0.395 | 1 | 0.968 | 1.11 | 1.04 | 0.903 | 0.764 |
| NCI-H650 | 0.404 | 0.421 | 0.432 | 0.45 | 0.282 | 0.66 | 0.639 | 0.745 | 0.587 |  | 0.507 | 0.325 |  | 0.381 |  | 0.3 | 0.369 |  | 0.3 |  |
| SK-MES-1 | 1.27 | 1.1 | 1.04 | 1.07 | 0.78 | 1.01 | 0.973 | 0.94 | 0.757 | 1.04 | 1.05 | 1.11 | 1.2 | 1.17 | 0.341 | 0.309 | 0.32 | 0.322 | 0.314 | 0.798 |
| NCI-H1355 | 0.722 | 0.608 | 0.642 | 0.67 | 0.628 | 1.04 | 1.09 | 1.19 | 0.941 | 0.663 | 0.626 | 0.686 | 0.583 | 0.57 | 0.343 | 0.332 | 0.317 | 0.306 | 0.322 |  |
| NCI-H838 | 0.745 | 0.73 | 0.733 | 0.676 | 0.651 | 0.835 | 0.778 | 0.638 | 0.316 | 0.763 | 0.657 | 0.583 | 0.41 | 0.307 | 0.482 | 0.47 | 0.466 | 0.415 | 0.3 | 0.431 |
